The text below walks through data of US20250032430A1, “USES OF RHODOQUINONE FOR THE TREATMENT OF DISEASE” (Whitehead Institute for Biomedical Research, priority 2021, published 2025).

The test system of assay [1] is complex I. The experiment in a line: Complex I activity assay (DCPIP) on purified mitochondria. To be noted: mitochondria from wild-type, UQCRC2 KO and COX4 KO 143B cells; 1 μM rotenone. Format: biochemical, human. As to the method: (§1) Isolation of Mitochondria for Biochemical Assays: 143B cells were scraped and pelleted at 1000×g for 5 minutes. Cell pellets were washed in 1×PBS and pelleted at 1000×g for 5 minutes. For tissue samples, approximately 100 mg of tissue powder was weighed out. Tissue powder or cells were re-suspended in isolation buffer (200 mM sucrose, 10 mM Tris HCl, 1 mM EGTA/Tris, pH 7.4 (adjusted with 1M HEPES)), transferred into an ice-cold glass homogenizer (VWR), and dounced with 15-30 strokes. Homogenates were transferred into tubes and spun at 600×g for 10 minutes at 4° C. Supernatants were moved to a new tube and centrifugation was repeated. Then, supernatants were moved to a new tube and pelleted at 7,000×g for 10 minutes at 4° C. Pellets were washed in isolation buffer and centrifugation was repeated. Pellets were subsequently stored at −80° C. until use.
Complex 1 activity assay (DCPIP): Purified mitochondria were re-suspended in buffer (0.22 M Mannitol, 0.075 M Sucrose, 1 mM EDTA, 10 mM HEPES pH 7.4, and one complete Protease inhibitor tablet (Sigma)) to a concentration of 5 mg/mL. […] Either 1 μM rotenone or equivalent DMSO was added to each well and baseline absorbance at 600 nm was measured on a SpectraMax iD5 plate reader (Molecular Devices). Reactions were initiated by adding NADH (Sigma) to a final concentration of 2 mM and absorbance at 600 nm was monitored over time.

Assay [2] deals with T1, SDH complex (Homo sapiens, UniProt O14521+P21912+P31040+Q99643).
T1 construct: endogenous in cells; host or cells: 143B cells (A5: live cells; A6: permeabilized mitochondria purified from them)
The experiment in a line: SDH forward/reverse activity (succinate oxidation, fumarate reduction) by stable isotope tracing in cells. Format: cell-based. An excerpt:
Fumarate reduction can be monitored in cells by the stable isotope tracing of either ^13C4-aspartate or ^13C5^15N2-glutamine. ^13C4-aspartate contributes to the fumarate pool via oxaloacetate and malate and so should lead to the production of ^13C4-succinate upon fumarate reduction (FIG. 2B). ^13C5^15N2-glutamine contributes to the fumarate pool through the reductive arm of the TCA cycle via glutamate, α-ketoglutarate, isocitrate, citrate, oxaloacetate, and malate. A key distinction between the two labeling approaches is that ^13C5^15N2-glutamine enriches the fumarate pool more upon antimycin treatment due to enhanced reductive carboxylation flux, whereas ^13C4-aspartate labels the fumarate pool to equivalent extents in vehicle and antimycin-treated cells (FIG. 2C). Therefore, with stable isotope tracing of ^13C4-aspartate, the level of ^13C4-succinate is a direct measure of fumarate reduction, whereas the stable isotope tracing of ^13C5^15N2-glutamine requires a ratiometric analysis of labeled succinate to labeled fumarate to normalize for differences in the extent of fumarate labeling.
To test if hypoxia triggers electron leakage onto fumarate or a net-reversal of the SDH complex, the ^13C5^15N2-glutamine tracer was utilized, which enables simultaneous quantification of the forward and reverse activities of SDH through the generation of unique isotopologues upon flux through the oxidative arm (α-ketoglutarate to succinate) compared to the reductive arm (α-ketoglutarate—via citrate—to fumarate) of the TCA cycle (FIG. 2E). In this assay, the forward (succinate oxidation) reaction was defined as the ratio of percent labeled ^13C4-fumarate to its precursor ^13C4-succinate (FIG. 2E) and the reverse (fumarate reduction) as that of percent labeled ^13C3-succinate to its precursor ^13C3-fumarate (FIG. 2E). This type of analysis can be performed when the labeling is in the steady-state, which was determined to be after 4-8 hours of incubation with ^13C5^15N2-glutamine (FIG. S2E-F). This ratiometric analysis of the succinate and fumarate isotopologues eliminates potential biases in the assay, such as higher ^13C3-fumarate labeling in antimycin-treated cells caused increased reductive carboxylation flux (FIG. S2E).
Stable isotope tracing in cells: Cells were seeded 24 hours prior to the experiment in 6-well dishes at 70% density. For stable isotope tracing of glutamine, glutamine-free DMEM (ThermoFisher) was supplemented with 2 mM ^13C5^15N2-glutamine (Sigma), 1 mM pyruvate, 5% FBS, 1% P/S, 0.1 mg/mL uridine. For stable isotope tracing of aspartate, DMEM containing 5% FBS, and 1% penicillin and streptomycin, and 0.1 mg/mL uridine (Sigma) was supplemented with the designated amount of 13C4-aspartate (Sigma) and the pH adjusted to 7.4. Uridine was left out of the media for stable isotope tracing experiments measuring nucleotide biosynthesis. Unless otherwise stated, for all experiments, cells were treated for 8 hours and metabolites were isolated as described below. Relevant compounds were added at the start of the incubation periods.

Assay [3] relates to mitochondrial membrane potential. As to the kind of experiment: Mitochondrial membrane potential (TMRE dye). The following applies: 250 nM CCCP. The assay is classed as cell-based, human. As to the method: Live Cell Imaging: 143B cells were seeded at 50% density in 6-well dishes 24 hours prior to the experiment. Cells were pre-incubated with 500 nM TMRE dye for 30 minutes and then imaging on a Nikon TE2000 inverted microscope was started. Images were taken at 1 minute intervals over the course of an hour in the mCherry channel while the plate was incubated in a chamber maintaining a temperature of 37° C. and 5% CO2.
Flow Cytometry: Cells were seeded 24 hours prior to the experiment at 50% density. On the day of the experiment, the cells were treated for the designated time with inhibitors. 30 minutes prior to the end of the incubation, 500 nM TMRE dye was added to the wells. Following incubation cells were washed, trypsinized, and filtered through a cell strainer prior to sorting. Fluorescence-activated cell sorting was performed on a LSR-II sorter, in which the fluorescence intensity of individual cells was quantified in the PE channel. Data were analyzed using FlowJo software (TreeStar).

Assay [4] has as its system 143B cells. The experiment in a line: Oxygen consumption rate of cultured cells. Format: cell-based, human. To be noted: UQCRC2 and COX4 knockout cells. As for the experimental part: Oxygen Consumption Rate (Seahorse): Respiration was measured on intact 143B cells and on mitochondria purified from tissue on the Seahorse XFe-96 Analyzer (Seahorse Bioscience). Cells were incubated in a non-CO2 37° C. incubator in serum-free Seahorse XF RPMI Media (Seahorse Bioscience, Catalog #103336) supplemented with 5 mM glucose, 2 mM glutamine, and 1 mM pyruvate. Oxygen consumption rate (OCR) was measured over a period of 30 minutes. Oxygen consumption rate was also measured on mitochondria purified from mouse tissues. Mitochondria were incubated in MAS buffer (70 mM sucrose, 220 mM mannitol, 10 mM KH2PO4, 5 mM MgCl2, 2 mM HEPES pH 7.2, 1 mM EGTA, 2% BSA) supplemented with 2 mM ADP, 5 mM glutamate, 5 mM malate, 5 mM pyruvate, and 2.5 mM succinate. Oxygen consumption rate (OCR) was measured over a period of 30 minutes.
Oxygen Consumption Rate (Resipher): 25,000 143B cells were seeded into Thermo Nunc Treated, Flat-Bottom 96-Well Microplate (167008) in standard culture medium 24 hours prior to experimentation. […] Live oxygen consumption rate was measured for 3 hours and then media was changed to treat cells with the appropriate inhibitors. Live oxygen consumption rate was monitored for an additional 3 hours. Data were analyzed on Resipher web application (Lucid Scientific).

For assay [5], the system named is 143B cells. As to the kind of experiment: Cell proliferation. To be noted: for proliferation: UQCRC2 and COX4 knockout cells. The assay is classed as cell-based, human. As to the method:
Proliferation: 25,000 cells were seeded in 6-well dishes and counted on day 1 and day 5 on a Beckman Coulter Counter. Doubling times were calculated using the following equation: […]

Assay [6] has as its system SDH complex. As to the kind of experiment: SDH activity assay in permeabilized purified mitochondria. Format: biochemical, human. The following applies: permeabilized purified mitochondria; 1 μM piericidin. As for the experimental part:
SDH activity was examined in permeabilized purified mitochondria. The rate of succinate oxidation was measured by monitoring fumarate production over time after initiating the reaction with succinate. The rate of fumarate reduction was measured in a separate assay by monitoring the rate of succinate production over time after initiating the reaction with fumarate and NADH. […] Moreover, complex I inhibition by piericidin suppressed the fumarate reduction caused by antimycin treatment (FIG. 2I).
as §1
SDH Activity Assay: Purified mitochondria were re-suspended in buffer (0.22 M Mannitol, 0.075 M Sucrose, 1 mM EDTA, 10 mM HEPES pH 7.4, and one complete Protease inhibitor tablet (Sigma)) to a concentration of 5 mg/mL and underwent 5 freeze-thaw cycles to permeabilize them. 30 μg mitochondria (6 uL) were diluted 1:10 (in 54 uL) of SDH activity assay buffer (27.5 mM KH2PO4 pH 7.4, 1.1 mM CoQ-10 (Sigma), 3.5 g/L BSA). Reactions were supplemented with DMSO, 1 μM antimycin, or 1 μM piericidin and pre-incubated at 37° C. for 10 minutes. […] Samples were centrifuged at 16,000×g for 10 minutes at 4° C. and supernatants were dried down and analyzed by LC-MS for succinate and fumarate.

Assay [7] deals with DHODH (Homo sapiens, UniProt Q02127).
DHODH, sequence (Q02127 whole entry): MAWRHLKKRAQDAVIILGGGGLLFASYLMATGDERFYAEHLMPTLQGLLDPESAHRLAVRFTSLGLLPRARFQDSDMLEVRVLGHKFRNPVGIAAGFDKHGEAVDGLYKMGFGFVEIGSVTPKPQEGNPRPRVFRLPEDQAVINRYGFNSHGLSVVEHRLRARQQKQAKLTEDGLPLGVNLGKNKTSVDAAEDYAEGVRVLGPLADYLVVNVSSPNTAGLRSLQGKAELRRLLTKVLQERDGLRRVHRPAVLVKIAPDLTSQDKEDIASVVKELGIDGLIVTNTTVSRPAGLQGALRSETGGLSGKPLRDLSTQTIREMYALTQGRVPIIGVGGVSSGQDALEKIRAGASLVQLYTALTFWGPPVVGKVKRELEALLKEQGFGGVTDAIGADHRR
Protocol: Isolation of metabolites from adherent cells: To isolate metabolites, media was removed, cells were washed 2 times with ice cold 1×PBS, and wells were covered in LC-MS grade 80:20 Methanol:Water (ThermoFisher). Plates were scraped on dry ice and lysates were collected into eppendorf tubes. Lysates were vortexed for 10 minutes at 4° C. and centrifuged at 16,000×g for 10 minutes at 4° C. Supernatants were immediately dried down in a Refrigerated CentriVap Benchtop Vacuum Concentrator connected to a CentriVap-105 Cold Trap (Labconco). Dried pellets were stored at −80° C. until they were run on LC-MS.
Liquid Chromatography and Mass Spectrometry (polar): A QExactive bench top orbitrap mass spectrometer equipped with an Ion Max source and a HESI II probe coupled to a Dionex UltiMate 3000 HPLC system (Thermo Fisher Scientific) was used to perform all LC-MS experiments. The instrument underwent mass calibration using the standard calibration mixture every 7 days. 2 μL of re-suspended polar metabolite samples were injected onto a SeQuant ZIC-pHILIC 5 μm 150×2.1 mm analytical column equipped with a 2.1×20 mm guard column (MilliporeSigma). The column oven was held at 25° C. and the autosampler tray was held at 4° C. Buffer A was comprised of 20 mM ammonium carbonate, 0.1% ammonium hydroxide. Buffer B was comprised of 100% acetonitrile. The chromatographic gradient was run at a flow rate of 0.150 mL/min as follows: 0-20 min: linear gradient from 80-20% B; 20-20.5 min: linear gradient from 20-80% B; 20.5-28 min: hold at 80% B. The mass spectrometer was operated in full-scan, polarity-switching mode, with the spray voltage set to 3.0 kV, the heated capillary at 275° C., and the HESI probe at 350° C. The sheath gas flow was 40 units, the auxiliary gas flow was 15 units, and the sweep gas flow was 1 unit. MS data was collected in a range of m/z=70-1000. The resolution set at 70,000, the AGC target at 1×106, and the maximum injection time at 20 msec. An additional scan (m/z=220-700) was included in negative mode only to enhance detection of nucleotides.

T1 sequence (P31040 43-664): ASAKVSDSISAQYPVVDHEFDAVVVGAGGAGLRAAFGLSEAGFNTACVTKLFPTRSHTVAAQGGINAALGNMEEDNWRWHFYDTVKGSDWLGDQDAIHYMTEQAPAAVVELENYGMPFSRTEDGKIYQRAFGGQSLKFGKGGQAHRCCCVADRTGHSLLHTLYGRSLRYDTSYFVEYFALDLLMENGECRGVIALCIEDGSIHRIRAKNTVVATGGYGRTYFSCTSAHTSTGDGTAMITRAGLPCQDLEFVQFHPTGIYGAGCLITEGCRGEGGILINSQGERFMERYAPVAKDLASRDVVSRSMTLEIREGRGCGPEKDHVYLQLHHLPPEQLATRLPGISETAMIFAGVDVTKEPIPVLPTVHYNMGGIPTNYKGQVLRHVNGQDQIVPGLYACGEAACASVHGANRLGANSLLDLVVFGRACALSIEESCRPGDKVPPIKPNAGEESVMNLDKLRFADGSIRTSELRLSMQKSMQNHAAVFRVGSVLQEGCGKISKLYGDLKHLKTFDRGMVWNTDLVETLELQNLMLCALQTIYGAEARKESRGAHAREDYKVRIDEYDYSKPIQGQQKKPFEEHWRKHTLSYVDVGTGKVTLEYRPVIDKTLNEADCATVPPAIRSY
T1 sequence (P21912 29-280): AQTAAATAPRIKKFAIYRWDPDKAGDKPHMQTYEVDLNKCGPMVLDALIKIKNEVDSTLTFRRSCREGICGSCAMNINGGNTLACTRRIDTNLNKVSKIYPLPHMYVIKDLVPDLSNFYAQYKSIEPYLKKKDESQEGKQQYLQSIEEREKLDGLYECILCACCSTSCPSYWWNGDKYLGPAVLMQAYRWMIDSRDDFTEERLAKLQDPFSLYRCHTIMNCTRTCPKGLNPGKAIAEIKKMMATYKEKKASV
T1 sequence (Q99643 30-169): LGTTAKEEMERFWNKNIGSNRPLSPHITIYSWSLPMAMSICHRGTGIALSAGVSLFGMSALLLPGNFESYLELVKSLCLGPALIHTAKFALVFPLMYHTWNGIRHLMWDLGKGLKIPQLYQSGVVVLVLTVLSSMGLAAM
T1 sequence (O14521 57-159): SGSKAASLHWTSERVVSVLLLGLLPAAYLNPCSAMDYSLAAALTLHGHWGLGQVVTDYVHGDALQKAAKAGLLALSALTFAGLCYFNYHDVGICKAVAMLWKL

For the molecule `C=C(C)[C@H]1Cc2c(ccc3c2O[C@@H]2COc4cc(OC)c(OC)cc4[C@@H]2C3=O)O1` [rotenone], in assay [1], the “complex I activity” value is given as “significantly reduced”.

Consider `COC(=O)CCC(=O)OC` [dimethylsuccinate], for which the “increase in fumarate reduction caused by antimycin treatment” value in assay [2] (143B cells, antimycin co-treatment) is “slightly suppressed”.

For the molecule `N#CC(C#N)=NNc1cccc(Cl)c1` [CCCP, Carbonyl cyanide 3-chlorophenylhydrazone], the TMRE fluorescence result in assay [3] is listed as “reduced fluorescence”.

Take `C/C=C(\C)[C@H](O)[C@H](C)/C=C(C)/C=C/C/C(C)=C/Cc1nc(OC)c(OC)c(O)c1C` [piericidin]: in assay [4], the O2 consumption rate entry is on record as “did not affect”. The proliferation entry in assay [5] is given as “did reduce their proliferation, although to a lesser extent than in wild-type cells”. Moreover, in assay [6], the “fumarate reduction caused by antimycin treatment” value is “suppressed”. The “DHODH activity (13C4-aspartate into 13C3-UTP)” value in assay [7] (combined inhibition of complex III with antimycin and complex I with piericidin) is recorded as “no effect”.

For `CC1(C)CC(NC(=O)C[P+](c2ccccc2)(c2ccccc2)c2ccccc2)CC(C)(C)N1[O]` [MitoTEMPO], the fumarate reduction entry was “did not affect” in assay [2] (antimycin-treated 143B cells) and “significant decrease” in assay [2] (vehicle-treated 143B cells).

For `Cc1c(-c2ccc(-c3ccccc3F)cc2)nc2ccc(F)cc2c1C(=O)O` [brequinar], the O2 consumption rate result in assay [4] was “no effect”. In addition, in assay [5], the proliferation result was “reduced”. For the same molecule, the “aspartate-increased proliferation of antimycin-treated cells” value in assay [5] (culture media supplemented with aspartate, antimycin-treated cells) was “ablated”. Moreover, the 13C3-UTP biosynthesis result in assay [7] (UQCRC2 and COX4 knockout 143B cells, 2 μM brequinar) is “ablated”. Besides, in assay [7] (wild-type 143B cells, 13C4-aspartate tracing 8 hours, 500 nM antimycin, 2 μM brequinar), the “de novo UTP biosynthesis (13C3-UTP generation, DHODH activity)” value was “ablated”.

Consider `O=C(O)CC(=O)O` [malonic acid], for which, in assay [5], the proliferation result is on record as “significantly reduced”. Besides, the fumarate reduction entry was “no effect” in assay [2] (SDHB knockout cells); “almost completely ablated” in assay [2] (UQCRC2 and COX4 knockout cells).
